Laboratory results reported in patent publication US4732977A, “Carbapenem antibiotics” (priority 1986, dated 1988).
Values after ≈ are worked out from the molar mass of the structure shown. Read-outs that look alike come from different tables or passages of the source. Values belong to the compound of their own block, whether it stands above or below them.

Legend:
E. coli A20341-1 = assay: M.I.C., tube dilution; assay type: cell-based; conditions: Nutrient Broth
[1] = tested on: S. aureus A-9606 (Pen-res.); assay: M.I.C., tube dilution; assay type: cell-based; conditions: overnight incubation at 37° C.
K. pneumoniae A20468 = assay: M.I.C., tube dilution; assay type: cell-based; conditions: Nutrient Broth
P. aeruginosa A21213 = assay: M.I.C., tube dilution; assay type: cell-based; conditions: Nutrient Broth
E. coli A15119 = assay: M.I.C., tube dilution; assay type: cell-based; conditions: overnight incubation at 37° C., Nutrient Broth
E. cloacae A-9659 = assay: M.I.C., tube dilution; assay type: cell-based; conditions: overnight incubation at 37° C., Nutrient Broth
[2] = Blood levels in mice after intramuscular administration; conditions: for AUC / Cmax / half-life: 20 mg/kg;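 on all read-outs here: compounds dissolved in 0.1 M phosphate buffer at pH 7, data from one experiment using four mice for each compound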
Text: Compounds were solubilized in 0.1 M phosphate buffer pH 7.
a single test; 4 mice used per compound.
Compounds were solubilized in 0.1 M phosphate buffer, pH 7.
on a single test; 4 mice per compound.

S. aureus A-9537 = assay: M.I.C., tube dilution; assay type: cell-based
E. cloacae A-9656 = assay: M.I.C., tube dilution; assay type: cell-based; conditions: Nutrient Broth
P. vulgaris A21559 = assay: M.I.C., tube dilution; assay type: cell-based; conditions: Nutrient Broth
P. rettgeri A22424 = assay: M.I.C., tube dilution; assay type: cell-based; conditions: overnight incubation at 37° C., Nutrient Broth
P. morganii A15153 = assay: M.I.C., tube dilution; assay type: cell-based; conditions: overnight incubation at 37° C.
S. faecalis A20688 = assay: M.I.C., tube dilution; assay type: cell-based; conditions: Nutrient Broth
S. marcescens A20019 = assay: M.I.C., tube dilution; assay type: cell-based; conditions: overnight incubation at 37° C., Nutrient Broth
[3] = Half-life (stability) in buffer solution; assay type: physicochemical; conditions: 10^-4 M, (phosphate) buffer pH 7.4, 37° C.; read-out: half-life in solution (converted)
Procedure: T1/2 =9.8 h (measured at a concentration of 10^-4 M in phosphate buffer pH 7.4 at 36.8° C.).
UV (phosphate buffer, pH 7.4) λmax 294 nm (ε=8,202); T1/2 (phosphate buffer, pH 7.4, M=0.967, T=37° C.) 9.1 h.
(c of 10^-4 M in pH 7.4 phosphate buffer.
.tau.1/2 =20.8 h measured at 37° C. in buffer (pG 7.4) for a concentration of 10^-4 M.
.tau.1/2 =12.5 h measured at 37° C. in buffer pH 7.4 for a concentration of 10^-4 M.
h (measured for a concentration of 10^-4 M at 36.8° C. in buffer pH 7.4).
.tau.1/2 =26.0 h (measured for a concentration of 10^-4 M at 36.8° C. in buffer pH 7.4).
.tau.1/2 =16.6 h (measured at 36.8° C., pH 7.4 for a concentration of 10^-4 M) and (5R, 6S) 6-(1R-hydroxyethyl)7-oxo-3-[1,2,6-trimethylpyridinium-4-yl)methylthio]-1-azabicyclo[3.2.0 hept-2-ene-2-carboxylate, 0.010 g, 0.7%;
.tau.1/2 =11.6 h (measured for a concentration of 10^-4 M at 36.8° C. in buffer pH 7.4).
.tau.1/2 =13.4 h (measured for a concentration of 10^-4 M at 36.8° C. in buffer pH 7.4).
.tau.1/2 =14.4 h (measured for a concentration of 10^-4 M at 36.8° C. in buffer pH 7.4).
T 1/2: 10.2 h (biological buffer).
.tau.1/2 =10.2 h measured at 36.8° C. for a concentration of 10^-4 M in buffer pH 7.4.

P. mirabilis A-9900 = assay: M.I.C., tube dilution; assay type: cell-based; conditions: Nutrient Broth
K. pneumoniae A-9664 = assay: M.I.C., tube dilution; assay type: cell-based; conditions: Nutrient Broth
P. aeruginosa A-9843A [4] = assay: M.I.C., tube dilution; assay type: cell-based; conditions: overnight incubation at 37° C., Nutrient Broth; listed as Ex. 15 "B"
S. pneumoniae A-9585 = assay: M.I.C., tube dilution; assay type: cell-based; conditions: overnight incubation at 37° C., Nutrient Broth
P. aeruginosa A-9843a [5] = assay: animal or person; assay type: in vivo, mice; conditions: mice, i.m.; P. aeruginosa A9843A
Procedure: The PD50 (dose in mg/kg required to give protection to 50% of the infected mice) is indicated.
with drugs 0 and 2 hours postinfection.
The PD50 (dose in mg/kg) required to give protection to 50% of the infected mice is indicated.

S. pyogenes A-9604 = assay: M.I.C., tube dilution; assay type: cell-based; conditions: overnight incubation at 37° C., Nutrient Broth; listed as Ex. 15 "B"
[6] = Escherichia coli, A203411, overnight incubation at 37° C., read-out: MIC
[7] = Klebsiella pneumoniae, A20468, overnight incubation at 37° C., read-out: MIC
[8] = Pseudomonas aeruginosa, A21213, overnight incubation at 37° C., read-out: MIC
[9] = Escherichia coli, A15119, read-out: MIC
[10] = Enterobacter cloacae, A9656, overnight incubation at 37° C., read-out: MIC
[11] = Proteus vulgaris, A21559, overnight incubation at 37° C., read-out: MIC
[12] = Enterococcus faecalis, A20688, overnight incubation at 37° C., read-out: MIC
[13] = overnight incubation at 37° C., listed as Ex. 15 "B"

MIC (E. coli A20341-1; [6]): 0.6 µg/mL
MIC ([1]; Staphylococcus aureus): 0.5 µg/mL
MIC (K. pneumoniae A20468; [7]): 0.5 µg/mL
MIC (P. aeruginosa A21213; [8]): 16 µg/mL
MIC (E. coli A15119; [9]): 0.6 µg/mL
MIC (E. cloacae A-9659; Enterobacter cloacae, A9659, read-out: MIC): 2 µg/mL
AUC ([2]; mouse, blood, im): 3400 ng·h/mL
Cmax ([2]; mouse, blood, im): 11000 ng/mL
half-life ([2]; mouse, blood, im): 8 min
MIC (S. aureus A-9537; Staphylococcus aureus, A9537, +50% serum, read-out: MIC): 1 µg/mL
MIC (E. cloacae A-9656; [10]): 2 µg/mL
MIC (P. vulgaris A21559; [11]): 0.13 µg/mL
MIC (P. rettgeri A22424; Providencia rettgeri, A22424, read-out: MIC): 2 µg/mL
MIC (P. morganii A15153; Morganella morganii, A15153, printed M. morganii A15153, read-out: MIC): 0.5 µg/mL
MIC (S. faecalis A20688; [12]): 4 µg/mL
Compound: C[C@@H](O)[C@H]1C(=O)N2C(C(=O)[O-])=C(SCc3cn(C)n[n+]3CC(=O)O)C[C@H]12 [Example 17, Potassium 3-[5-(1-carboxylatomethyl-3-methyl-1,2,3-triazolium)-methanethio]-6α-[1-(R)-hydroxyethyl]-7-oxo-1-azabicyclo[3.2.0]hept-2-ene-2-carboxylate]

Compound: C[C@@H](O)[C@H]1C(=O)N2C(C(=O)[O-])=C(SCc3n[n+](C)nn3C)C[C@H]12 [Example 20, (1'R,5R,6S) 3-[(1,3-dimethyl-5-tetrazolium)-methylthio]-6-(1-hydroxyethyl)-7-oxo-1-azabicyclo[3.2.0]hept-2-ene-2-carboxylate]
MIC (E. coli A20341-1; [6]): 2 µg/mL (≈ 5.89 µM)
MIC (K. pneumoniae A20468; [7]): 4 µg/mL (≈ 11.8 µM)
MIC (P. aeruginosa A21213; [8]): 16 µg/mL (≈ 47.1 µM)
MIC (E. coli A15119; [9]): 1 µg/mL (≈ 2.95 µM)
MIC (S. marcescens A20019; Serratia marcescens, A20019, read-out: MIC): 4 µg/mL (≈ 11.8 µM)
half-life at 100 µM [3]: 630 min
MIC (P. mirabilis A-9900; Proteus mirabilis, A9900, overnight incubation at 37° C., read-out: MIC): 4 µg/mL (≈ 11.8 µM)
AUC ([2]; mouse, blood, im): 15600 ng·h/mL
Cmax ([2]; mouse, blood, im): 28400 ng/mL
half-life ([2]; mouse, blood, im): 14 min
MIC (S. aureus A-9537; Staphylococcus aureus, A9537, overnight incubation at 37° C., Nutrient Broth, read-out: MIC): 0.5 µg/mL (≈ 1.47 µM)
MIC (E. cloacae A-9656; [10]): 16 µg/mL (≈ 47.1 µM)
MIC (P. vulgaris A21559; [11]): 4 µg/mL (≈ 11.8 µM)
MIC (K. pneumoniae A-9664; Klebsiella pneumoniae, A9664, overnight incubation at 37° C., read-out: MIC): 4 µg/mL (≈ 11.8 µM)
MIC (S. faecalis A20688; [12]): 16 µg/mL (≈ 47.1 µM)

Compound: C[C@@H](O)C1C(=O)N2C(C(=O)[O-])=C(SCc3cn(C)n[n+]3C)CC12 (stereo partly drawn) [Example 15 "B", 3-[4-(N,N-dimethyl-1,2,3-triazolium)methylthio]-6α-[1-(R)-hydroxyethyl]-7-oxo-1-azabicyclo(3.2.0)hept-2-ene-2-carboxylate]
MIC (E. coli A20341-1; [13]): 0.008 µg/mL (≈ 0.0236 µM)
MIC ([1]; listed as Ex. 15 "B"): 0.008 µg/mL (≈ 0.0236 µM)
MIC (K. pneumoniae A20468; [13]): 0.016 µg/mL (≈ 0.0473 µM)
MIC (P. aeruginosa A21213; [13]): 0.13 µg/mL (≈ 0.384 µM)
MIC (E. coli A15119; listed as Ex. 15 "B"): 0.008 µg/mL (≈ 0.0236 µM)
MIC (S. marcescens A20019; listed as Ex. 15 "B"): 0.016 µg/mL (≈ 0.0473 µM)
MIC (E. cloacae A-9659; listed as Ex. 15 "B"): 0.016 µg/mL (≈ 0.0473 µM)
MIC (P. aeruginosa A-9843A [4]): 2 µg/mL (≈ 5.91 µM)
MIC (P. mirabilis A-9900; overnight incubation at 37° C.): 0.03 µg/mL (≈ 0.0887 µM)
T1/2 ([2]; mice, 20 mg/kg i.m. (table 9)): 10 min
AUC ([2]; mice, 20 mg/kg i.m. (table 9)): 7400 ng·h/mL
Cmax ([2]; mice, 20 mg/kg i.m. (table 9)): 15900 ng/mL
MIC (S. aureus A-9537; +50% serum, listed as Ex. 15 "B"): 0.016 µg/mL (≈ 0.0473 µM)
MIC (S. aureus A-9537; overnight incubation at 37° C., Nutrient Broth, listed as Ex. 15 "B"): 0.004 µg/mL (≈ 0.0118 µM)
MIC (E. cloacae A-9656; overnight incubation at 37° C.): 0.03 µg/mL (≈ 0.0887 µM)
MIC (P. vulgaris A21559; [13]): 0.008 µg/mL (≈ 0.0236 µM)
MIC (S. pneumoniae A-9585): 0.5 ng/mL (≈ 0.00148 µM)
MIC (K. pneumoniae A-9664; overnight incubation at 37° C.): 0.03 µg/mL (≈ 0.0887 µM)
MIC (P. rettgeri A22424; listed as Ex. 15 "B"): 0.13 µg/mL (≈ 0.384 µM)
PD50/treatment (P. aeruginosa A-9843a [5]): 0.89 mg/kg
MIC (S. pyogenes A-9604): 1 ng/mL (≈ 0.00296 µM)
MIC (P. morganii A15153; printed M. morganii A15153, listed as Ex. 15 "B"): 0.06 µg/mL (≈ 0.177 µM)
MIC (S. faecalis A20688; overnight incubation at 37° C.): 0.5 µg/mL (≈ 1.48 µM)
